Test results: publication PMC6369734, “Spy vs. spy: selecting the best reporter for ^19F NMR competition experiments” (Chemical Communications (Cambridge, England), 2019)

Molecular target: T1, VHL (VBC complex), Hyp site (Homo sapiens, UniProt P40337)
T1 construct: equimolar complex of pVHL54-213, eloB1-104 and; made in house; host or cells: E. coli
Assay: 19F NMR competition experiment, displacement of spy molecule 19
Assay type: binding
Conditions: 19 at 50 μM, VHL at 1.0 μM
Experimental: Lastly, the utility and scope of using spy molecule 19 to quantify binding of competitors across a wide range of affinities was evaluated (Fig. 5). Five compounds were titrated against 19 at 50 μM and VHL at 1.0 μM. In all cases the displacement of the spy molecule was concentration-dependent and the Ki (inhibition constant) values were derived from the respective IC50 using a competitive binding model.[12] The measured binding affinities compared remarkably well with the respective values obtained by SPR across 4-log units. The same experiment was attempted with spy molecules 6 and 11 under the same conditions, and in these cases, the assay could not differentiate the binders as efficiently (ESI, ^† Fig. S2–S4), since this would require higher protein concentration.
6. Competition experiments by 19F NMR
As full measurements of R2 would be very time consuming, the competition experiments were performed using a single 19F CPMG experiment (decoupled) per sample with a fixed CPMG delay. To determine the best CPMG delay for a given spy molecule and assay condition, the procedure described in Figure S5 was developed based on the transverse relaxation rate equations.[7] By knowing the relaxation rates of the spy molecule free in solution and in presence of protein, the CPMG delay where the difference between the NMR peaks is maximum is hereon referred as dmax. The dmax for all the conditions tested for each spy molecule can be found in section 8, together with the respective values of R2 and C2.
Method for selecting the best CPMG delay for competition experiments. With the transverse relaxation rates of the spy molecule free in solution (R2F, resulting in the blue plot) and bound to protein (R2B, resulting in the red plot), the difference between the two curves is described by I(t)D (cyan curve). To obtain dmax, the delay where the difference curve reaches its maximum, the first derivative of I(t)D was obtained and equalled to 0, subsequently isolating t (CPMG filter). […]

| Displacement of spy molecule 19 | Structure (SMILES) |
| --- | --- |
| concentration dependent | CC(C)(C)CC(=O)N1C[C@H](O)C[C@H]1C(=O)NCc1ccc(Br)c(C(F)(F)F)c1 [Compound 3] |
| concentration dependent | CC(=O)N1C[C@H](O)C[C@H]1C(=O)NCc1ccc(Br)cc1C(F)(F)F [Compound 10] |
| concentration dependent | CC(=O)NC(C(=O)N1CC(O)CC1C(=O)NCc1ccc(Br)cc1C(F)(F)F)C(C)(C)C (stereo not drawn) [Compound 12] |
